Reference: patent US20250041306A1, “TARGETED PROTEASE DEGRADATION (TED) PLATFORM” (EUBULUS BIOTHERAPEUTICS INC., priority 2021, published 2025)
Like-named read-outs stand apart in the source and are kept apart here. Numbered stars: 1 amine (or outer) side, 2 acyl side, 3 side chain; on linkers, the order of the positions; unused ones are H or OH. Bridge positions count the residues as written; N and C are the ends. Square brackets hold non-standard residues; d marks the D form. Peptide text beside a SMILES is read from it. I, II: the chains in the order shown. * marks the point of attachment. X1 = NC(=O)c1ccccc1Nc1nc(Nc2ccc(N3CCN(C(=O)NC4CCC(N(CCC#Cc5ccc6c(c5)CN(C5CCC(=O)NC5=O)C6=O)C(=O)OCCS*)CC4)CC3)cc2)ncc1Cl; Succinimide(1-C2H4CO,3-yl) = O=C1CC([*:1])C(=O)N1CCC(=O)[*:2]; Thr(ol) = C[C@@H](O)[C@H](N)CO

Experiments:
Format in all cases: cell-based
[1] = system: human gastric carcinoma cells N87; experiment: Cell proliferation experiment (Alarm blue), N87
Protocol: (§1) The cells were cultured in conventional ways, and the cells should be passed for at least 2 generations before plating. Cells at the logarithmic growth phase were collected, prepared into single cell suspensions and counted. The concentration of cells was adjusted to desired concentration, and cells were inoculated into a 96-well cell culture plate at 100 μl per well. 100 μL of complete medium of the test compound were added to each well, 2 replicate wells for each concentration were set up, and diluted with a 5-fold gradient, and continued to culture for 72 h. All cells were subjected to EC50 test for corresponding samples.
(§2) The fluorescence intensity of each well was detected using the Alarm blue method, and IC50 was calculated.
(§3) IC50 was calculated according to the following formula:
(§4) [formula] • wherein Min, Max and Slope represent the minimum, maximum and slope respectively.

Human Colon Cancer HT-29 = experiment: Cell proliferation experiment (Alarm blue), HT-29
Protocol: as §1, §2, §3, §4

[2] = system: Human Small Cell Lung Cancer H69; experiment: Cell proliferation experiment (Alarm blue), H69
Protocol: as §1, §2, §3, §4

[3] = system: Human Colon Cancer cells Colo205; experiment: Cell proliferation experiment (Alarm blue), Colo205
Protocol: as §1, §2, §3, §4

[4] = system: Human Small Cell Lung Cancer NCI-H82; experiment: Cell proliferation experiment (Alarm blue), H82
Protocol: as §1, §2, §3, §4

[5] = Homo sapiens, HT-29 cells, 72 h culture, read-out: Anti cell proliferative activity EC50, HT-29
[6] = Homo sapiens, NCI-H69, H69 cells, 72 h culture, read-out: Anti cell proliferative activity EC50, H69
[7] = N87 cells, 72 h culture, read-out: Anti cell proliferative activity EC50, N87
[8] = HT-29 cells, 72 h culture, read-out: Anti cell proliferative activity EC50, HT-29
[9] = H69 cells, 72 h culture, read-out: Anti cell proliferative activity EC50, H69
[10] = Colo205 cells, 72 h culture, read-out: Anti cell proliferative activity EC50, Colo205
[11] = H82 cells, 72 h culture, read-out: Anti cell proliferative activity EC50, H82

## NC(=O)c1ccccc1Nc1nc(Nc2ccc(C3CCN(C(=O)N[C@H]4C[C@@H](NCCC#Cc5ccc6c(c5)CN(C5CCC(=O)NC5=O)C6=O)C4)CC3)cc2)ncc1Cl (stereo partly drawn) [UB-181279]
[1]; Homo sapiens, 72 h, N87 cells, 72 h culture, read-out: Anti cell proliferative activity EC50, N87
  EC50: > 1000 nM
Human Colon Cancer HT-29; [5]
  EC50: 415 nM
[2]; [6]
  EC50: > 1000 nM
[3]; Homo sapiens, COLO 205, 72 h, Colo205 cells, 72 h culture, read-out: Anti cell proliferative activity EC50, Colo205
  EC50: 65.2 nM
[4]; Homo sapiens, NCI-H82, 72 h, H82 cells, 72 h culture, read-out: Anti cell proliferative activity EC50, H82
  EC50: 24.9 nM

## CC(C)c1cc(-c2nnc(O)n2-c2ccc3c(ccn3CCC3CCN(C(=O)CCSSCCOC(=O)N(CCC#Cc4ccc5c(c4)CN(C4CCC(=O)NC4=O)C5=O)C4CCC(NC(=O)N5CCN(c6ccc(Nc7ncc(Cl)c(Nc8ccccc8C(N)=O)n7)cc6)CC5)CC4)CC3)c2)c(O)cc1O (stereo not drawn) [UB-181294]
[1]; [7]
  EC50: 818 nM
Human Colon Cancer HT-29; [8]
  EC50: 865 nM
[2]; [9]
  EC50: > 1000 nM
[3]; [10]
  EC50: 301 nM
[4]; [11]
  EC50: 245 nM

## CNC(=O)c1ccccc1Nc1nc(Nc2ccc(N3CCN(C(=O)N[C@H]4CC[C@@H](N(CCC#Cc5ccc6c(c5)CN(C5CCC(=O)NC5=O)C6=O)C(=O)OCCSSC[C@H](N)C(=O)N[C@H](Cc5ccccc5)C(=O)N[C@H]5CSSC[C@@H](C(=O)N[C@H](CO)[C@@H](C)O)NC(=O)[C@H]([C@@H](C)O)NC(=O)[C@H](CCCCN)NC(=O)[C@@H](Cc6c[nH]c7ccccc67)NC(=O)[C@H](Cc6ccccc6)NC5=O)CC4)CC3)cc2)ncc1Cl (stereo partly drawn) [UB-181299]
[1]; [7]
  EC50: 679 nM
Human Colon Cancer HT-29; [8]
  EC50: > 1000 nM
[2]; [9]
  EC50: > 1000 nM
[3]; [10]
  EC50: 302 nM
[4]; [11]
  EC50: 246 nM

## CNC(=O)c1ccccc1Nc1nc(Nc2ccc(N3CCN(C(=O)N[C@H]4CC[C@@H](N(CCC#Cc5ccc6c(c5)CN(C5CCC(=O)NC5=O)C6=O)C(=O)OC(C)C(C)SSC[C@@H](NC(=O)CC[C@@H](NC(=O)c5ccc(NCc6cnc7nc(N)[nH]c(=O)c7n6)cc5)C(=O)O)C(=O)N[C@H](Cc5ccccc5)C(=O)N[C@H]5CSSC[C@@H](C(=O)N[C@H](CO)[C@@H](C)O)NC(=O)[C@H]([C@@H](C)O)NC(=O)[C@H](CCCCN)NC(=O)[C@@H](Cc6c[nH]c7ccccc67)NC(=O)[C@H](Cc6ccccc6)NC5=O)CC4)CC3)cc2)ncc1Cl (stereo partly drawn) [UB-181267]
[1]; [7]
  EC50: > 1000 nM
Human Colon Cancer HT-29; [8]
  EC50: > 1000 nM
[2]; [9]
  EC50: > 1000 nM
[3]; [10]
  EC50: 519 nM
[4]; [11]
  EC50: 168 nM

## C[C@@H](O)[C@@H]1NC(=O)[C@H](CCCCN)NC(=O)[C@@H](Cc2c[nH]c3ccccc23)NC(=O)[C@H](Cc2ccccc2)NC(=O)[C@@H](NC(=O)[C@@H](Cc2ccccc2)NC(=O)[C@@H](N)CSC2CC(=O)N(CCC(=O)N[C@@H](CC(=O)O)C(=O)N[C@@H](CCCNC(=N)N)C(=O)N[C@@H](CC(=O)O)C(=O)N[C@@H](CC(=O)O)C(=O)N[C@@H](CSSCCOC(=O)N(CCC#Cc3ccc4c(c3)CN(C3CCC(=O)NC3=O)C4=O)C3CCC(NC(=O)N4CCN(c5ccc(Nc6ncc(Cl)c(Nc7ccccc7C(N)=O)n6)cc5)CC4)CC3)C(=O)O)C2=O)CSSC[C@@H](C(=O)N[C@H](CO)[C@@H](C)O)NC1=O (stereo partly drawn) [UB-181342] (I: H-C[dF]CF[dW]KTC[Thr(ol)] / II: DRDDC(X1)-OH; linker I:1-II:N via Succinimide(1-C2H4CO,3-yl); disulfide I:3-I:8)
[1]; 72 h
  EC50: > 1000 nM
Human Colon Cancer HT-29; 72 h
  EC50: > 1000 nM
[2]; 72 h
  EC50: > 1000 nM
[3]; 72 h
  EC50: 847 nM
[4]; 72 h
  EC50: 746 nM

## CNC(=O)c1ccccc1Nc1nc(Nc2ccc(N3CCN(C(=O)N[C@H]4CC[C@@H](N(CCC#Cc5ccc6c(c5)CN(C5CCC(=O)NC5=O)C6=O)C(=O)OCc5ccc(NC(=O)[C@H](CC(N)=O)NC(=O)[C@H](C)NC(=O)[C@H](C)NC(=O)COCCOC)cc5)CC4)CC3)cc2)ncc1Cl (stereo partly drawn) [UB-181237]
[1]; Homo sapiens, N87 cells, 72 h culture, read-out: Anti cell proliferative activity EC50, N87
  EC50: 308 nM
Human Colon Cancer HT-29; [5]
  EC50: 902 nM
[2]; [6]
  EC50: > 1000 nM
[3]; Homo sapiens, COLO 205, Colo205 cells, 72 h culture, read-out: Anti cell proliferative activity EC50, Colo205
  EC50: 277 nM
[4]; Homo sapiens, NCI-H82, H82 cells, 72 h culture, read-out: Anti cell proliferative activity EC50, H82
  EC50: 141 nM

## CNC(=O)c1ccccc1Nc1nc(Nc2ccc(N3CCN(C(=O)N[C@H]4CC[C@@H](N(CCC#Cc5ccc6c(c5)CN(C5CCC(=O)NC5=O)C6=O)C(=O)OC(C)C(C)SSC[C@H](NC(=O)CC[C@H](NC(=O)c5ccc(NCc6cnc7nc(N)[nH]c(=O)c7n6)cc5)C(=O)O)C(=O)N[C@H](Cc5ccccc5)C(=O)N[C@H]5CSSC[C@@H](C(=O)N[C@H](CO)[C@@H](C)O)NC(=O)[C@H]([C@@H](C)O)NC(=O)[C@H](CCCCN)NC(=O)[C@@H](Cc6c[nH]c7ccccc67)NC(=O)[C@H](Cc6ccccc6)NC5=O)CC4)CC3)cc2)ncc1Cl (stereo partly drawn) [UB-181266]
[1]; [7]
  EC50: > 1000 nM
Human Colon Cancer HT-29; [8]
  EC50: > 1000 nM
[2]; [9]
  EC50: > 1000 nM
[3]; [10]
  EC50: 234 nM
[4]; [11]
  EC50: 152 nM

## CC[C@H]1C(=O)N(C)c2cnc(Nc3ccc(-c4cn([C@H]5CC[C@@H](N(CCOCCC#Cc6cccc7c6CN(C6CCC(=O)NC6=O)C7=O)C(=O)OCc6ccc(NC(=O)[C@H](CCCNC(N)=O)NC(=O)[C@@H](NC(=O)CCOCCOCCOCCOCCOCCOCCOCCOCCNC(=O)CCN7C(=O)C=CC7=O)C(C)C)cc6)CC5)nn4)cc3OC)nc2N1C1CCCC1 (stereo partly drawn) [UB-181238]
[1]; 72 h
  EC50: > 1000 nM
[4]; 72 h
  EC50: > 1000 nM

## CC[C@@H]1C(=O)N(C)c2cnc(Nc3ccc(-c4cn([C@H]5CC[C@@H](N(CCOCCC#Cc6cccc7c6CN(C6CCC(=O)NC6=O)C7=O)C(=O)OC(C)C(C)SSC[C@H](NC(=O)CC[C@H](NC(=O)c6ccc(NCc7cnc8nc(N)[nH]c(=O)c8n7)cc6)C(=O)O)C(=O)N[C@H](Cc6ccccc6)C(=O)N[C@H]6CSSC[C@@H](C(=O)N[C@H](CO)[C@@H](C)O)NC(=O)[C@H]([C@@H](C)O)NC(=O)[C@H](CCCCN)NC(=O)[C@@H](Cc7c[nH]c8ccccc78)NC(=O)[C@H](Cc7ccccc7)NC6=O)CC5)nn4)cc3OC)nc2N1C1CCCC1 (stereo partly drawn) [UB-181268]
[1]; [7]
  EC50: > 1000 nM
Human Colon Cancer HT-29; [8]
  EC50: > 1000 nM
[2]; [9]
  EC50: > 1000 nM
[3]; [10]
  EC50: > 1000 nM
[4]; [11]
  EC50: > 1000 nM
